Source: patent US12258336B2, “Preparation of seimicarbazide-sensitive amine oxidase inhibitor and use thereof” (SHANGHAI ENNOVABIO PHARMACEUTICALS CO., LTD., priority 2018, dated 2025)

Tests used:
[1] = target: T1, Recombinant human SSAO protein (Homo sapiens, UniProt Q16853); test: In vitro inhibitory activity on SSAO/VAP-1 (MAO-Glo assay), human; format: biochemical
T1 construct: Eli Lilly (provided, not a catalogue product)
T1 sequence (Q16853 1-763): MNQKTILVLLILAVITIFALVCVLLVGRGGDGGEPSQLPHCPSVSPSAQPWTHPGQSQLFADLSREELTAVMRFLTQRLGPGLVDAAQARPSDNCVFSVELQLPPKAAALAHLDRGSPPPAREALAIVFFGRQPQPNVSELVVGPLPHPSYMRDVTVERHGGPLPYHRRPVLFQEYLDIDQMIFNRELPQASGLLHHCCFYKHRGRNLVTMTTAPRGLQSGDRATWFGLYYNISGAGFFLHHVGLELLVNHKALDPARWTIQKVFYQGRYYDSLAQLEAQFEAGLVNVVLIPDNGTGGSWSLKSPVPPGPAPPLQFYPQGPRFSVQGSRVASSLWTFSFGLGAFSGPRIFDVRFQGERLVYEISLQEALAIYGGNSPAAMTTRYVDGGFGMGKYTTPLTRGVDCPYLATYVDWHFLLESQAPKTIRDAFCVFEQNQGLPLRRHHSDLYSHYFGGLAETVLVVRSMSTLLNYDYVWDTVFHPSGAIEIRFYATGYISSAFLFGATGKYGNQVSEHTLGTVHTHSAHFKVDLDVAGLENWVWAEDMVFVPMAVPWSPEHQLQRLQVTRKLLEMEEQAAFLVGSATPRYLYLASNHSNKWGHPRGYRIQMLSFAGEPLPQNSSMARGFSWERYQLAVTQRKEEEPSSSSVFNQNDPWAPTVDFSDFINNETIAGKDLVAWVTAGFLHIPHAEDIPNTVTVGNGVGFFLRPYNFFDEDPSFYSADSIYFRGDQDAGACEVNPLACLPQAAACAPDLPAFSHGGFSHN
Protocol: This assay was used to evaluate the in vitro inhibitory activity of the compounds on SSAO/VAP-1 of different species. Recombinant human SSAO protein, mouse SSAO protein or rat SSAO protein (provided by Eli Lilly) were used. The enzyme activity detection kit, MAO-Glo Assay kit (V1402) was purchased from Promega. Enzyme reaction buffer (50 mM HEPES, 120 mM NaCl, 5 mM KCl, 2 mM CaCl2, 1.4 mM MgCl2, 0.001% Tween-20, pH7.4) was prepared. The test compound was dissolved in DMSO and diluted by 3-fold concentration in gradient. The final concentration of test compound in a 10 μL reaction system was 1 μM to 0.05 nM when SSAO was detected. The content of DMSO in the detection reaction was 1%. After the solution of test compound in DMSO was diluted in the enzyme reaction buffer at a volume ratio of 1:25, 2.5 μL of which was added to each well of detection plate, two replicates for each concentration. 5 μL of SSAO protein diluted in the enzyme reaction buffer was added to each well, the final concentration of which was 10 nM to 80 nM in 10 μL reaction system. The mixture was incubated at room temperature for 10 minutes. 2.5 μL of the reaction substrate diluted in the enzyme reaction buffer was added to each well, the final concentration of which was 10 μM in 10 μL reaction system. After the mixture was reacted at room temperature for 120 minutes, 10 μL of detection reagent was added to each well. The reaction solution was incubated for 20 minutes at room temperature, and the plate was read with Synergy Neo 2 for detection. The value was converted into inhibition rate by the following formula: Inhibition rate=(Signalpositive−Signaltest)/(Signalpositive−Signalnegative)×100%
Signalpositive was positive control without test compound. Signalnegative was negative control without test compound and SSAO enzyme, and Signaltest was detection value of each compound at different concentrations. IC50 value was calculated by using 4 parameter curve fitting.

[2] = target: T2, Recombinant human AOC2 protein (Homo sapiens, UniProt O75106); test: Inhibitory activity on AOC2; format: biochemical
T2 construct: Eli Lilly (provided, not a catalogue product)
T2 sequence (O75106 1-756): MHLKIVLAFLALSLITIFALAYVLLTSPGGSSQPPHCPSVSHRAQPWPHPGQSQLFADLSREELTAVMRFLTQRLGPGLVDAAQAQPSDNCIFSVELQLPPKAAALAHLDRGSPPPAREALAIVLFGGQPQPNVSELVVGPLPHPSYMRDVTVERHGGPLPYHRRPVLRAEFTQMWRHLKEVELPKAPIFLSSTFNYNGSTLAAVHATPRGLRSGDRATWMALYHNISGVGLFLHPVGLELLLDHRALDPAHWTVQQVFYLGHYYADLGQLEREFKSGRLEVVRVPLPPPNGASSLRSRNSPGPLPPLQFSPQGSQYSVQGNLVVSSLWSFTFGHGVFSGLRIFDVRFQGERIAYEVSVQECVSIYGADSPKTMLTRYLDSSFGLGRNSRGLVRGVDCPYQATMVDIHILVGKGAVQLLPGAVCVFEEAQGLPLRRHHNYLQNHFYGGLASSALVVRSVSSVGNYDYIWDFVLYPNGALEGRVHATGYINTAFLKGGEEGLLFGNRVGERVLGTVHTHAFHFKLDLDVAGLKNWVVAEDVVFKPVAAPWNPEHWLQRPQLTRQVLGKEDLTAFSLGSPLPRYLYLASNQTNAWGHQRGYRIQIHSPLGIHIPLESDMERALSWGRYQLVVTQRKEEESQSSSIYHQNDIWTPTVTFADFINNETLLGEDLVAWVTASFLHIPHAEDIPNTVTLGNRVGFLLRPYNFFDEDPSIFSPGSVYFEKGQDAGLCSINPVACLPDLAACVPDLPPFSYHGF
Protocol: Recombinant human AOC2 protein (provided by Eli Lilly). Other reagents are the same as those in Biological Test Example 1. The final concentration of test compound in 10 μL reaction system was 100 μM to 5 nM when AOC2 was detected, while other reaction conditions were the same as those in Biological Test Example 1. Data analysis and IC50 calculation method were the same as those in Biological Test Example 1.

CC1CN(c2ncc(OC/C(=C/F)CN)cn2)CC(C)N1C1COC1 (stereo not shown) [Example 1, (E)-2-(((2-(3,5-dimethyl-4-(oxbutan-3-yl)piperazin-1-yl)pyrimidin-5-yl)oxo)methyl)-3-fluoroprop-2-en-1-amine]
IC50 [1]: < 0.01 µM | IC50 [2]: 0.1 to 1 µM

COC1CC2CC1CN2c1ncc(OC/C(=C/F)CN)cn1 (stereo not shown) [Example 2]
IC50 [1]: < 0.01 µM | IC50 [2]: > 1 µM

NC/C(=C\F)COc1cnc(N2CCC3(CC2)COC3)nc1 [Example 3]
IC50 [1]: < 0.01 µM | IC50 [2]: > 1 µM

NC/C(=C\F)COc1cnc(N2CCN(C3COC3)CC2)nc1 [Example 4, (E)-3-fluoro-2-(((2-(4-(oxbutan-3-yl)piperazin-1-yl)pyrimidin-5-yl)oxo)methyl)prop-2-en-1-amine]
IC50 [1]: < 0.01 µM | IC50 [2]: > 1 µM

CC1(C)CN(C2COC2)CCN1c1ncc(OC/C(=C/F)CN)cn1 [Example 5]
IC50 [1]: 0.01 to 0.05 µM | IC50 [2]: 0.1 to 1 µM

NC/C(=C\F)COc1cnc(N2CC3CCC(C2)N3C2COC2)nc1 [Example 6]
IC50 [1]: 0.01 to 0.05 µM | IC50 [2]: 0.1 to 1 µM

N#Cc1cc(OC/C(=C/F)CN)cnc1N1CCN(C2COC2)CC1 [Example 7]
IC50 [1]: > 0.05 µM | IC50 [2]: > 1 µM

NC/C(=C/F)COc1cnc(N2CCN(C3COC3)CC2)nc1 [Example 8]
IC50 [1]: < 0.01 µM | IC50 [2]: > 1 µM

NC/C(=C\F)COc1cnc(N2CCN(c3cnc(N4CCN(C5COC5)CC4)nc3)CC2)nc1 [Example 9]
IC50 [1]: < 0.01 µM | IC50 [2]: 0.1 to 1 µM

CC1(C)CN(c2ncc(OC/C(=C/F)CN)cn2)CCN1C1COC1 [Example 10]
IC50 [1]: 0.01 to 0.05 µM | IC50 [2]: > 1 µM

COC1CC2CCC(C1)N2c1ncc(OC/C(=C/F)CN)cn1 (stereo not shown) [Example 12]
IC50 [1]: < 0.01 µM | IC50 [2]: > 1 µM
